Assay results from patent US4048161A, “7-[α-(Benzimidazol-2-ylcarbonylamino)-arylacetamido]ephalosporins” (Eli Lilly and Company, priority 1976, dated 1977).
Values after ≈ are worked out from the molar mass of the structure shown.

What was measured:
Assay type in all cases: cell-based
Shigella sp. = experiment: Gradient plate in vitro antibiotic activity (MIC), Shigella sp.; details: read-out: Minimum Inhibitory Concentration
Excerpt: (§1) The antibiotic activity of the cephalosporin compounds of this invention is illustrated by the data provided in the following Table of representative compounds. The values in the Table are the minimum inhibitory concentrations (MIC) for the test compounds against the indicated microorganisms. The MIC values were obtained using the gradient plate in vitro method for determining antibiotic activity.

Escherichia coli = experiment: Gradient plate in vitro antibiotic activity (MIC), Escherichia coli; details: read-out: Minimum Inhibitory Concentration
Excerpt: (§2) The values in the Table are the minimum inhibitory concentrations (MIC) for the test compounds against the indicated microorganisms. The MIC values were obtained using the gradient plate in vitro method for determining antibiotic activity.

Klebsiella pneumoniae = experiment: Gradient plate in vitro antibiotic activity (MIC), Klebsiella pneumoniae; details: read-out: Minimum Inhibitory Concentration
Excerpt: as §2

Aerobacter aerogenes = experiment: Gradient plate in vitro antibiotic activity (MIC), Aerobacter aerogenes; details: Klebsiella aerogenes, read-out: Minimum Inhibitory Concentration
Excerpt: as §1

Salmonella heidelberg = experiment: Gradient plate in vitro antibiotic activity (MIC), Salmonella heidelberg; details: Salmonella enterica, read-out: Minimum Inhibitory Concentration
Excerpt: as §2

Pseudomonas aeruginosa = experiment: Gradient plate in vitro antibiotic activity (MIC), Pseudomonas aeruginosa; details: read-out: Minimum Inhibitory Concentration
Excerpt: as §2

Serratia marcescens = experiment: Gradient plate in vitro antibiotic activity (MIC), Serratia marcescens; details: read-out: Minimum Inhibitory Concentration
Excerpt: as §2

[1] = test system: V41 penicillin resistant Staphylococcus; experiment: Gradient plate in vitro antibiotic activity (MIC), V41 penicillin resistant Staphylococcus; details: read-out: Minimum Inhibitory Concentration
Excerpt: as §1
(§3) 1. Test organisms V41, V32, and V84 are penicillin

[2] = test system: V32 penicillin resistant Staphylococcus; experiment: Gradient plate in vitro antibiotic activity (MIC), V32 penicillin resistant Staphylococcus; details: read-out: Minimum Inhibitory Concentration
Excerpt: as §1, §3

[3] = test system: X400 methicillin resistant Staphylococcus; experiment: Gradient plate in vitro antibiotic activity (MIC), X400 methicillin resistant Staphylococcus; details: read-out: Minimum Inhibitory Concentration
Excerpt: as §1
resistant Staphylococcus. X-400 is a methicillin
resistant Staphylococcus.

[4] = test system: V84 penicillin resistant Staphylococcus; experiment: Gradient plate in vitro antibiotic activity (MIC), V84 penicillin resistant Staphylococcus; details: read-out: Minimum Inhibitory Concentration
Excerpt: as §1, §3

For `CC(=O)OCC1=C(C(=O)O)N2C(=O)C(NC(=O)C(NC(=O)c3nc4ccccc4[nH]3)c3ccccc3)C2SC1` (centres unmarked) [A], the MIC (Shigella sp.) was 15 µg/mL (≈ 27.3 µM), the MIC (Escherichia coli) was 26.5 µg/mL (≈ 48.2 µM) and the MIC (Klebsiella pneumoniae) was 18.5 µg/mL (≈ 33.7 µM). The MIC (Aerobacter aerogenes) was 18.3 µg/mL (≈ 33.3 µM), the MIC (Salmonella heidelberg) was 22 µg/mL (≈ 40 µM) and the MIC (Pseudomonas aeruginosa) was 25 µg/mL (≈ 45.5 µM). The MIC (Serratia marcescens) was 100 µg/mL (≈ 182 µM), the MIC [1] was 4 µg/mL (≈ 7.28 µM) and the MIC [2] was 5 µg/mL (≈ 9.1 µM). The MIC [3] was > 20 µg/mL and the MIC [4] was 0.6 µg/mL (≈ 1.09 µM).

Work on `Cn1nnnc1SCC1=C(C(=O)O)N2C(=O)C(NC(=O)C(NC(=O)c3nc4ccccc4[nH]3)c3ccccc3)C2SC1` (centres unmarked) [B] yielded an MIC (Shigella sp.) of 5 µg/mL (≈ 8.26 µM), an MIC (Escherichia coli) of 18.5 µg/mL (≈ 30.5 µM) and an MIC (Klebsiella pneumoniae) of 5 µg/mL (≈ 8.26 µM). It also gave an MIC (Aerobacter aerogenes) of 8.5 µg/mL (≈ 14 µM), an MIC (Salmonella heidelberg) of 6.5 µg/mL (≈ 10.7 µM) and an MIC (Pseudomonas aeruginosa) of 22 µg/mL (≈ 36.3 µM). The MIC (Serratia marcescens) was 21.5 µg/mL (≈ 35.5 µM), the MIC [1] was 5 µg/mL (≈ 8.26 µM) and the MIC [2] was 7 µg/mL (≈ 11.6 µM). For the same compound, the MIC [3] was > 20 µg/mL and the MIC [4] was 0.7 µg/mL (≈ 1.16 µM).

`Cc1nnc(SCC2=C(C(=O)O)N3C(=O)C(NC(=O)C(NC(=O)c4nc5ccccc5[nH]4)c4ccc(O)cc4)C3SC2)s1` (centres unmarked) [E] gave an MIC (Shigella sp.) of 10 µg/mL (≈ 15.7 µM), an MIC (Escherichia coli) of 16 µg/mL (≈ 25.1 µM) and an MIC (Klebsiella pneumoniae) of 4.5 µg/mL (≈ 7.06 µM). The MIC (Aerobacter aerogenes) was 21.5 µg/mL (≈ 33.7 µM), the MIC (Salmonella heidelberg) was 16 µg/mL (≈ 25.1 µM) and the MIC (Pseudomonas aeruginosa) was 18.5 µg/mL (≈ 29 µM). For the same compound, the MIC (Serratia marcescens) was 70 µg/mL (≈ 110 µM), the MIC [1] was 4 µg/mL (≈ 6.27 µM) and the MIC [2] was 5 µg/mL (≈ 7.84 µM). It also gave an MIC [3] of 100 µg/mL (≈ 157 µM) and an MIC [4] of 1 µg/mL (≈ 1.57 µM).

Compound `Cn1nnnc1SCC1=C(C(=O)O)N2C(=O)C(NC(=O)C(NC(=O)c3nc4ccccc4[nH]3)c3cccs3)C2SC1` (centres unmarked) [D] has an MIC (Shigella sp.) of 4 µg/mL (≈ 6.54 µM), an MIC (Escherichia coli) of 7 µg/mL (≈ 11.4 µM) and an MIC (Klebsiella pneumoniae) of 0.6 µg/mL (≈ 0.981 µM). It also gave an MIC (Aerobacter aerogenes) of 10 µg/mL (≈ 16.3 µM), an MIC (Salmonella heidelberg) of 7.5 µg/mL (≈ 12.3 µM) and an MIC (Pseudomonas aeruginosa) of 14.8 µg/mL (≈ 24.2 µM). For the same compound, the MIC (Serratia marcescens) was 14.8 µg/mL (≈ 24.2 µM), the MIC [1] was 0.6 µg/mL (≈ 0.981 µM) and the MIC [2] was 0.6 µg/mL (≈ 0.981 µM). For the same compound, the MIC [3] was 19.5 µg/mL (≈ 31.9 µM) and the MIC [4] was 0.5 µg/mL (≈ 0.817 µM).

In the case of `Cn1c(SCC2=C(C(=O)O)N3C(=O)C(NC(=O)C(NC(=O)c4nc5ccccc5[nH]4)c4ccc(O)cc4)C3SC2)nnc(O)c1=O` (centres unmarked) [G], the MIC (Shigella sp.) is reported as 6.7 µg/mL (≈ 10.1 µM), the MIC (Escherichia coli) is reported as 11 µg/mL (≈ 16.5 µM) and the MIC (Klebsiella pneumoniae) is reported as 1 µg/mL (≈ 1.5 µM). The MIC (Aerobacter aerogenes) was 19.2 µg/mL (≈ 28.9 µM), the MIC (Salmonella heidelberg) was 8.5 µg/mL (≈ 12.8 µM) and the MIC (Pseudomonas aeruginosa) was 60 µg/mL (≈ 90.3 µM). For the same compound, the MIC (Serratia marcescens) was 41 µg/mL (≈ 61.7 µM), the MIC [1] was 0.8 µg/mL (≈ 1.2 µM) and the MIC [2] was 1.8 µg/mL (≈ 2.71 µM). The MIC [3] was > 200 µg/mL and the MIC [4] was 0.8 µg/mL (≈ 1.2 µM).

For `Cn1nnnc1SCC1=C(C(=O)O)N2C(=O)C(NC(=O)C(NC(=O)c3nc4ccccc4[nH]3)c3ccc(O)cc3)C2SC1` (centres unmarked) [C], the MIC (Shigella sp.) was 5.5 µg/mL (≈ 8.85 µM), the MIC (Escherichia coli) was 7.5 µg/mL (≈ 12.1 µM) and the MIC (Klebsiella pneumoniae) was 0.9 µg/mL (≈ 1.45 µM). The MIC (Aerobacter aerogenes) was 13 µg/mL (≈ 20.9 µM), the MIC (Salmonella heidelberg) was 8 µg/mL (≈ 12.9 µM) and the MIC (Pseudomonas aeruginosa) was 10.5 µg/mL (≈ 16.9 µM). For the same compound, the MIC (Serratia marcescens) was 20.7 µg/mL (≈ 33.3 µM), the MIC [1] was 0.9 µg/mL (≈ 1.45 µM) and the MIC [2] was 0.9 µg/mL (≈ 1.45 µM). It also gave an MIC [3] of 60 µg/mL (≈ 96.5 µM) and an MIC [4] of 0.8 µg/mL (≈ 1.29 µM).

Work on `NC(=O)OCC1=C(C(=O)O)N2C(=O)C(NC(=O)C(NC(=O)c3nc4ccccc4[nH]3)c3ccc(O)cc3)C2SC1` (centres unmarked) [F] yielded an MIC (Shigella sp.) of 19.5 µg/mL (≈ 34.4 µM), an MIC (Escherichia coli) of 55 µg/mL (≈ 97.1 µM) and an MIC (Klebsiella pneumoniae) of 10 µg/mL (≈ 17.7 µM). For the same compound, the MIC (Aerobacter aerogenes) was 55 µg/mL (≈ 97.1 µM), the MIC (Salmonella heidelberg) was 19.5 µg/mL (≈ 34.4 µM) and the MIC (Pseudomonas aeruginosa) was 19.5 µg/mL (≈ 34.4 µM). For the same compound, the MIC (Serratia marcescens) was > 200 µg/mL, the MIC [1] was 0.9 µg/mL (≈ 1.59 µM) and the MIC [2] was 0.9 µg/mL (≈ 1.59 µM). The MIC [3] was 120 µg/mL (≈ 212 µM) and the MIC [4] was 0.8 µg/mL (≈ 1.41 µM).
